For one test, the target named is DPP8 (Homo sapiens, UniProt Q6V1X1). The test is described as follows: DPP8 inhibitory constant (Table 1 selectivity comparison). In kind it is biochemical.
The target of a further test is DPP9 (Homo sapiens, UniProt Q86TI2). Nature of the test: DPP9 inhibitory constant (Table 1 selectivity comparison). The class given is biochemical.
The test system of test [1] is Normal mice (C57/BL6 strain). Nature of the test: acute oral glucose tolerance test (OGTT). As to conditions: OGTT 5 gm/kg. In kind it is in vivo. The procedure:
Compounds of the present invention were evaluated for their ability to treat diabetes using an acute oral glucose tolerance test (OGTT) as follows: Normal mice (C57/BL6 strain), 6-7 weeks of age, on a normal chow diet, were fasted for 3 hrs. A baseline tail snip blood sample was taken to measure glucose levels (Precision PCx glucose meter, Abbott Laboratories, Abbott Park, Ill.) at the beginning of the experiment. Immediately after this baseline sample, compounds of the present invention (or placebo) were dosed orally. One hour later, a tail snip blood glucose measurement was taken, immediately followed by an oral glucose dose (OGTT, 5 gm/kg). The glucose excursion was followed for 2 hours with samples taken at 10, 20, 30, 60 and 120 minutes post OGTT. These timed glucose data were used to construct a glucose excursion curve, from which an area under the glucose curve (AUGC) was determined. The data reported in Table 2 is the baseline-adjusted area under the glucose curve (δAUGC) for drug and control groups.

From patent US7238724B2, “Pharmaceutical compositions as inhibitors of dipeptidyl peptidase-IV (DPP-IV)” (Abbott Laboratories, priority 2004, dated 2007) come the findings set out here.

Structures are written as SMILES.

For orientation: Ki means the dissociation constant of the complex between target and ligand, obtained from inhibition or displacement. Higher therefore signals lower affinity.

Sequence of DPP8 (Q6V1X1 whole entry, species assumed): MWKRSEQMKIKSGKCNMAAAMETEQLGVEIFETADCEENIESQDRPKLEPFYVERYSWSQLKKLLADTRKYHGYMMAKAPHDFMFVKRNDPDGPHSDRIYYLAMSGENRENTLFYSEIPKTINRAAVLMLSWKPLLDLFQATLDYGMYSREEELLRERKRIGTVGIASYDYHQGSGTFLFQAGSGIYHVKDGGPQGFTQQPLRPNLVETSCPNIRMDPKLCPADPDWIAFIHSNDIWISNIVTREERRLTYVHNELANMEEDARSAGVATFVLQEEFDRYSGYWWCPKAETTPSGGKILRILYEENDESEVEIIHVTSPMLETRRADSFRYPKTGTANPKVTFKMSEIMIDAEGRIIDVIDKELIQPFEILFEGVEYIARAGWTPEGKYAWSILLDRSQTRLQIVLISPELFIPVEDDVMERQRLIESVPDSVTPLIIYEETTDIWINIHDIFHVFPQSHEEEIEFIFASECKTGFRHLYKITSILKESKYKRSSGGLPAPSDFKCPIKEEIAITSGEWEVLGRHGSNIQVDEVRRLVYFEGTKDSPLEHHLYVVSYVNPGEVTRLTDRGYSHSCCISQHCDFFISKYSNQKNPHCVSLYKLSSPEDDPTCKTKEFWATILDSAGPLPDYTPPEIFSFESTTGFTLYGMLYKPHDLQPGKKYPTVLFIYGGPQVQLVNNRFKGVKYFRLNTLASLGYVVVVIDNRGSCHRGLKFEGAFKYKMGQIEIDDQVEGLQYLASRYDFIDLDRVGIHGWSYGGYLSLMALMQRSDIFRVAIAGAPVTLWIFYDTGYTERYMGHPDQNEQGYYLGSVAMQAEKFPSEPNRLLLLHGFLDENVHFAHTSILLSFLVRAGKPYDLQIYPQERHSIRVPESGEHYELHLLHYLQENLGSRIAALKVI
Sequence of DPP9 (Q86TI2 whole entry, species assumed): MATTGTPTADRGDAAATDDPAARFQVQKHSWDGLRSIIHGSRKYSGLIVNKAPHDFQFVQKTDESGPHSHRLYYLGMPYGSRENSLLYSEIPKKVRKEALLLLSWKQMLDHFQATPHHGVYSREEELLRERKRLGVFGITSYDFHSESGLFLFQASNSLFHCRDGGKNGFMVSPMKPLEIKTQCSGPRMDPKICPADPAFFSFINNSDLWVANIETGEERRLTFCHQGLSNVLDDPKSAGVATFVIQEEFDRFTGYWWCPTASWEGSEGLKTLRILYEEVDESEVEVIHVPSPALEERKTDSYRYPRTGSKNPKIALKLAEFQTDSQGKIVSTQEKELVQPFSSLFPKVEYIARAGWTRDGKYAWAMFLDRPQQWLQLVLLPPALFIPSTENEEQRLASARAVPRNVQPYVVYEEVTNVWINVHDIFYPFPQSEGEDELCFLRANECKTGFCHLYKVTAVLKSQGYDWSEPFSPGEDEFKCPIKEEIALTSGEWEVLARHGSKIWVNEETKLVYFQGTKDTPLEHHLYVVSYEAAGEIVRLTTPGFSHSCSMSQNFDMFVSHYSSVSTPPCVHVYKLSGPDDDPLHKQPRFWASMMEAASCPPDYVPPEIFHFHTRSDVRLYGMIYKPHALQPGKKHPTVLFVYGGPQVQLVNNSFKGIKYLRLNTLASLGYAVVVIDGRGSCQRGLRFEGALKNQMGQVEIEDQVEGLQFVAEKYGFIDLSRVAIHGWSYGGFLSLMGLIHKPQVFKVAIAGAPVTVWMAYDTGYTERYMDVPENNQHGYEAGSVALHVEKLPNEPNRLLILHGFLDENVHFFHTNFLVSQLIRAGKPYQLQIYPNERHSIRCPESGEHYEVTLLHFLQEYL

On to `CC(C)(C)NCC(=O)N1[C@H](C#N)CC[C@@H]1C#N` [Compound 9, (2R,5S)-1-[(tert-butylamino)acetyl]pyrrolidine-2,5-dicarbonitrile], for which the inhibition constant Ki at DPP8 and at DPP9 was above 100 µM throughout.
`C#C[C@H]1CC[C@@H](C#N)N1C(=O)CN[C@H]1CC[C@H](Oc2ccc(C#N)cn2)CC1` (relative stereo) [Compound 3, (2S,5R)-5-ethynyl-1-{N-(4-trans(5-cyano-pyridin-2-yloxy)cyclohexyl)glycyl}pyrrolidine-2-carbonitrile]: the figures for the “δ AUGC, change versus Control” value in test [1] (1.0 mg/kg dosed orally) and in test [1] (3.0 mg/kg dosed orally) were −39% and −54%, respectively. At DPP8, this compound displayed an inhibitory constant (Ki) above 30 µM.
